Source: ChEMBL document CHEMBL1201862, “PubChem BioAssay data set” (2004)
The source made the active and inactive calls. Rule as the data show it: actives have a measured IC50 and inactives only a lower limit.

Molecular target: Envelope glycoprotein gp160 (Human immunodeficiency virus 1, UniProt Q6QLK5)
Experiment: inhibitors of HIV fusion peptide binding, primary screen, biochemical, uHTS, fluorescence dequenching (AID 1986)

Sequence of Envelope glycoprotein gp160 (Q6QLK5 whole entry, the tested form may be a part): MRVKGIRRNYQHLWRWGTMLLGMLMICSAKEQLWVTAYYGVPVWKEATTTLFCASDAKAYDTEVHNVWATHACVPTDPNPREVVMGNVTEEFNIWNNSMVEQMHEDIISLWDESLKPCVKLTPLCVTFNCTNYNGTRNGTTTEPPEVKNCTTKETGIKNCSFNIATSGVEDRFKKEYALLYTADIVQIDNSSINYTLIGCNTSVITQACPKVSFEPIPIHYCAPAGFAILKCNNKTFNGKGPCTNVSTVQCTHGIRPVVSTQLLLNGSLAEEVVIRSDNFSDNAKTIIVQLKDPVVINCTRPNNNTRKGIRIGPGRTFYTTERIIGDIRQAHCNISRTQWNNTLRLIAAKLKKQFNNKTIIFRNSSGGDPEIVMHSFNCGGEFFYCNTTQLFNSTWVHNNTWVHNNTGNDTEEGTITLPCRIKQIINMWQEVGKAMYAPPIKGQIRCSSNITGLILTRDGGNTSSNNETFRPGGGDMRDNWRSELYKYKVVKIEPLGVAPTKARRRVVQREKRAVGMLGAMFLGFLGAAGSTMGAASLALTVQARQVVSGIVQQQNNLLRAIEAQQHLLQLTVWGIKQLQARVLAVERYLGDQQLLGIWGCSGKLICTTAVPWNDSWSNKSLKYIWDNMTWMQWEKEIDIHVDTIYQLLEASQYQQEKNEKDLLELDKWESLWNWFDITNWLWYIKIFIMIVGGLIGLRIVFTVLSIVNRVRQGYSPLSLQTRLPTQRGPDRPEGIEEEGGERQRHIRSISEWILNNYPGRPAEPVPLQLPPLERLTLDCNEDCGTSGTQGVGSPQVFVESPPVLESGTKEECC

Row | Structure (SMILES) | IC50
1 | O=C(O)CCn1cc(/C=C/C(=O)c2ccc(Cl)cc2)c(-c2ccc(Br)cc2)n1 | 21.4 µM (active)
2 | O=C(O)CN1C(=O)/C(=C\c2cc(Br)ccc2OCc2ccc(Cl)cc2)SC1=S | 14.3 µM (active)
3 | COc1cc(/C=C2/C(=O)NN(c3ccc(Cl)cc3)C2=O)ccc1OC(=O)c1ccco1 | 11.8 µM (active)
4 | CCOC(=O)c1sc(N2C(=O)C(O)=C(C(=O)c3ccco3)C2c2cccc([N+](=O)[O-])c2)nc1C (stereo unspecified) | 19 µM (active)
5 | COc1ccccc1/C=C1\SC(=S)N(CCC(=O)Nc2ccc(C(=O)O)c(O)c2)C1=O | 14.5 µM (active)
6 | Cc1ccccc1N/N=C/c1sc(=O)n(Cc2cccc(C(=O)O)c2)c1Cl | 15.6 µM (active)
